Experimental data from patent US8628752B2, “Methods of identifying HSP90 inhibitors with less ocular toxicity” (Synta Pharmaceuticals Corp., priority 2011, dated 2014).
“And” between values parts separate entries of the source, which are not always exact repeats. Equal values may be shown once. “Also recorded” adds a separate entry of the source. Read-outs that look alike come from different tables or passages of the source.

What was measured:
photoreceptors [1] = conditions: rat, in vivo, iv; for Incidences (#affected/total): male, Sprague-Dawley, 2 days
in vivo [2] = conditions: male, Sprague-Dawley, rat, iv; for Kp at 0.5 h / Kp at 6 h: in vivo
HER2 in BT-474 cells = experiment: HER2 degradation assay (anti-HER2 FITC flow cytometry); assay type: cell-based; conditions: 24 h treatment
Experimental: HER2 positive cells were determined using anti-HER2 conjugated FITC (BD, 540553) according to manufacturer's instruction (BD Biosciences). 0.2×10^6 BT-474 cells were plated in 12-well culture plates in Dulbecco's Modified Eagle's Medium containing 10% fetal bovine serum and 1.5 g/L sodium bicarbonate. Cells were treated with the indicated compounds over a 10-1000 nM concentration range for 24 h. Cells were collected and stained with a FITC-conjugated anti-HER2 antibody for 30 min at room temperature. HER2-positive cells (fluorescence intensity) were determined by flow cytometry (excitation at 495 nm and emission at 529 nm) using a Becton Dickinson LSRII equipped with CellQuest Pro software. […]

[3] = for Elimination from the retina (in words) / Retina/plasma (R/P) ratio (in words): rats; for Retina/plasma (R/P) ratio (in words): 6 h post-dose
in vivo [4] = conditions: male, Sprague-Dawley, rat, iv
photoreceptors [5] = experiment: Photoreceptor degeneration/apoptosis in rat eyes (H&E, TUNEL) after i.v. dosing; conditions: for Photoreceptor degeneration (in words) / Ocular toxicity / photoreceptor injury in rats (in words): rats; for Ocular toxicity / photoreceptor injury in rats (in words): short-term studies
[6] = phase I trials, clinical reports, cited from earlier work
[7] = Ocular adverse events in clinical studies with ganetespib; assay type: in vivo, humans
retina [8] = experiment: Ganetespib 3-month toxicology study, ocular histopathology; assay type: in vivo, cynomolgus monkeys; conditions: Monkeys (M + F), max. dose 7 mg/kg, 1 hour i.v. infusion, Days 1 & 15 of four 21-day cycles
retina [9] = experiment: as above; assay type: in vivo; conditions: SD rats (M + F), max. dose 100 mg/kg, 1 hour i.v. infusion, Days 1 & 15 of four 21-day cycles
retina [10] = conditions: repeated doses; cited from earlier work
[11] = SD rats, all testing doses of the compound, i.v.
[12] = male, Sprague-Dawley, rat, in vivo, iv, 2 days
[13] = male, Sprague-Dawley, rat, in vivo, iv
[14] = male, Sprague-Dawley, rat, in vivo, iv, 0.5 h
[15] = male, Sprague-Dawley, rat, in vivo, iv, 6 h
[16] = SD rats, i.v., between 0.5 and 6 h post-dose
[17] = SD rats, 8, 20, 60, 100/80 mg/kg/d x2, i.v.
[18] = SD rats, i.v., Day 2, 0.5 h, mg/kg: AUY922 10, 17-DMAG 20, Compound 1 50, 17-AAG 80
[19] = SD rats, i.v., Day 2, 6 h, mg/kg: AUY922 10, 17-DMAG 20, Compound 1 50, 17-AAG 80

CC(C)c1cc(C(=O)N2Cc3ccc(CN4CCN(C)CC4)cc3C2)c(O)cc1O [AT-13387]
Incidences (#affected/total) (photoreceptors [1]; 3 mg/kg/day): 6/6 | Incidences (#affected/total) (photoreceptors [1]; 30 mg/kg/day): 0/3 | Incidences (#affected/total) (photoreceptors [1]; 60 mg/kg/day): 2/3 | Mortality (in-house study) [11]: 0/9 | Other findings (in-house study) [12]: ↓ Body weight gain

CCNC(=O)c1noc(-c2cc(C(C)C)c(O)cc2O)c1-c1ccc(CN2CCOCC2)cc1 [AUY-922]
Kp at 0.5 h (in vivo [2]): 4.24 | Kp at 6 h (in vivo [2]): 165 | IC50 (HER2 in BT-474 cells): < 30 nM | IC50 (HER2 in BT-474 cells; Homo sapiens, BT-474, 24 h): 30 nM | Retina % remain at 6 h of drug present at 0.5 h [3, 13]: (53.5) % | Retina %↓ 0.5-6 h (drug eliminated from retina) [3, 13]: 46.5% | Plasma concentration [3, 14]: 1120 nM | Retina concentration [3, 14]: 4.75 µM | Plasma concentration [3, 15]: 15.4 nM | Retina concentration [3, 15]: 2.54 µM | Incidences (#affected/total) (photoreceptors [1]; 3 mg/kg/day): 0/3 | Incidences (#affected/total) (photoreceptors [1]; 60 mg/kg/day): 3/3 | Ocular toxicity / photoreceptor injury in rats (in words) (photoreceptors [1]): most severe ocular effects | TUNEL (photoreceptors [1]): +-++ | Toxicity: mortality (SD rats, 3-60 mg/kg i.v., in 2-3 days post-dose): No mortality | Mortality (in-house study) [11]: 0/12 | Other findings (in-house study) [12]: tail edema | Other findings (in-house study) (rat, in vivo, iv): ↓ Body weight gain)

CC(C)c1cc(-c2nnc(S)n2-c2ccc3c(ccn3C)c2)c(O)cc1O [Compound 1, 4-isopropyl-6-(5-mercapto-4-(1-methyl-1H-indol-5-yl)-4H-1,2,4-triazol-3-yl)benzene-1,3-diol]
MTD (in vivo [4]): 100 mg/kg | concentration at 0.5 h (in vivo [2]; cerebrospinal fluid): 19.4 nM | concentration at 0.5 h (in vivo [2]; plasma): 19500 nM | concentration at 6 h (in vivo [2]; plasma): 104 nM | concentration at 0.5 h (in vivo [2]; retina): 10400 nM | concentration at 6 h (in vivo [2]; retina): 2240 nM | Incidences (#affected/total) (photoreceptors [5]; SD rats, 10 mg/kg/d x2, i.v.): 0/3 | Severity (TUNEL + area & density) (photoreceptors [5]; SD rats, 10 mg/kg/d x2, i.v.): (−) ((−) ≦ 20 cells/section) | Incidences (#affected/total) (photoreceptors [5]; SD rats, 20 mg/kg/d x2, i.v.): 0/3 | Severity (TUNEL + area & density) (photoreceptors [5]; SD rats, 20 mg/kg/d x2, i.v.): (−) ((−) ≦ 20 cells/section) | Incidences (#affected/total) (photoreceptors [5]; SD rats, 30 mg/kg/d x2, i.v.): 0/3 | Severity (TUNEL + area & density) (photoreceptors [5]; SD rats, 30 mg/kg/d x2, i.v.): (−) (1/3±, 22 ((−) ≦ 20 cells/section) | Photoreceptor degeneration/apoptosis (photoreceptors [5]; SD rats, 50 mg/kg i.v.): (±) | Incidences (#affected/total) (photoreceptors [5]; SD rats, 50 mg/kg/d x2, i.v.): 3/3 | Severity (TUNEL + area & density) (photoreceptors [5]; SD rats, 50 mg/kg/d x2, i.v.): (±) ((±) 21-30 cells/section) | Incidences (#affected/total) (photoreceptors [5]; SD rats, 100 mg/kg/d x2, i.v.): 3/3 | Photoreceptor degeneration/apoptosis (photoreceptors [5]; SD rats, 10, 20, 30 mg/kg i.v.): (−) ((−) ≦20 cells/section) | Photoreceptor degeneration (in words) (photoreceptors [5]; doses active in animal tumor models): Photoreceptor degeneration was not observed | Photoreceptor degeneration (in words) (photoreceptors [5]; higher dose(s)): only minimal degeneration; also recorded: only minimal-mild changes | Ocular toxicity / photoreceptor injury in rats (in words) (photoreceptors [5]; i.v.): Mild or no ocular toxicity | IC50 (HER2 in BT-474 cells; Homo sapiens, BT-474, 24 h): 60 nM | Retina %↓ 0.5-6 h (drug eliminated from retina) [3, 16]: 78.5% | Retina %↓ 0.5-6 h (drug eliminated from retina) ([3]; SD rats, i.v., between 0.5 and 6 h post-dose, listed as compound 1): 79% | Mortality (in-house study) [12]: 0/15 | Other findings (in-house study) (rat, in vivo, 100 mg/kg): (ECG change

C=CCNC1=C2C[C@@H](C)C[C@H](OC)[C@H](O)[C@@H](C)/C=C(\C)[C@H](OC(N)=O)[C@@H](OC)/C=C\C=C(/C)C(=O)NC(=CC1=O)C2=O [Compound 17-AAG]
Photoreceptor degeneration/apoptosis (photoreceptors [5]; SD rats, 8, 20, 60 mg/kg i.v.): (−) ((−) ≦20 cells/section) | Incidences (#affected/total) (photoreceptors [5]; [17]): 0/10 | Severity (TUNEL + area & density) (photoreceptors [5]; [17]): (−) ((−) ≦ 20 cells/section) | Photoreceptor degeneration/apoptosis (photoreceptors [5]; SD rats, 80 (100) mg/kg i.v.): (−) ((−) ≦20 cells/section) | TUNEL (photoreceptors [5]; SD rats, i.v., mg/kg: AUY922 10, 17-DMAG 20, Compound 1 50, 17-AAG 80): (−) ((−) ≦ 20 cells/section) | Ocular toxicity / photoreceptor injury in rats (in words) (photoreceptors [5]; i.v.): Mild or no ocular toxicity; also recorded: absence of ocular effects; also recorded: did not produce detectable photoreceptor injury; also recorded: did not induce ocular toxicity in rats | IC50 (HER2 in BT-474 cells): 100 to 150 nM | Visual adverse effects in clinical trials / clinical subjects [6]: absence of clinically-reported visual changes | CSF concentration [3, 18]: 0.434 µM | Plasma concentration [3, 18]: 26500 nM | R/P ratio (retina/plasma) [3, 18]: 1.70 | Retina concentration [3, 18]: 45.1 µM | CSF concentration [3, 19]: 0.00433 µM | Plasma concentration [3, 19]: 262 nM | R/P ratio (retina/plasma) [3, 19]: 9.58 | Retina concentration [3, 19]: 2.51 µM | Retina % remain at 6 h of drug present at 0.5 h [3, 16]: (5.6) % | Retina %↓ 0.5-6 h (drug eliminated from retina) [3, 16]: 94% and 94.4% | Elimination from the retina (in words) [3]: more rapidly eliminated from the retina | Retina/plasma (R/P) ratio (in words) [3]: lower R/P ratios; also recorded: low R/P ratio | Mortality (in-house study) (SD rats, 100 mg/kg in 5 min): 1/3; 100 mg/kg in 5 min, | Mortality (in-house study) (SD rats, 120 mg/kg in 5 min): 1/1: 120 mg/kg in 5 min. | Toxicity: Mortality (dose) (SD rats, i.v.): 100 mg/kg

CO[C@H]1/C=C\C=C(/C)C(=O)NC2=CC(=O)C(NCCN(C)C)=C(C[C@@H](C)C[C@H](OC)[C@H](O)[C@@H](C)/C=C(\C)[C@@H]1OC(N)=O)C2=O [Compound 17-DMAG]
Kp at 0.5 h (in vivo [2]): 6.79 | Kp at 6 h (in vivo [2]): 51.1 | Incidences (#affected/total) (photoreceptors [5]; SD rats, 10 mg/kg/d x2, i.v.): 3/3 | Incidences (#affected/total) (photoreceptors [5]; SD rats, 20, 25 mg/kg/d x2, i.v.): 6/6 | Ocular toxicity / photoreceptor injury in rats (in words) (photoreceptors [5]; i.v.): marked photoreceptor cell death; also recorded: produced ocular toxicity | IC50 (HER2 in BT-474 cells; Homo sapiens): 60 nM | Visual adverse effects in clinical trials / clinical subjects ([6]; listed as alvespimycin): Visual symptoms, including blurred vision | CSF concentration [3, 18]: 0.0799 µM | Plasma concentration [3, 18]: 4710 nM | Retina concentration [3, 18]: 32.0 µM | CSF concentration [3, 19]: 0.00376 µM | Plasma concentration [3, 19]: 317 nM | Retina concentration [3, 19]: 16.2 µM | Retina %↓ 0.5-6 h (drug eliminated from retina) [3, 16]: 49.4% | Elimination from the retina (in words) [3]: longer retention time; also recorded: slow elimination rate | Retina/plasma (R/P) ratio (in words) [3]: high retina/plasma (R/P) ratio | Mortality (in-house study) (SD rats, 25 mg/kg/d x3, 72 hrs): 3/3 @ 25 | Toxicity: Mortality (dose) (SD rats, i.v., x 3 days): 25 mg/kg/dx

CC(C)c1cc(-c2n[nH]c(=O)n2-c2ccc3c(ccn3C)c2)c(O)cc1O [Ganetespib, 3-(2,4-dihydroxy-5-isopropyl-phenyl)-4-(1-methyl-indol-5-yl)-5-hydroxy-[1,2,4]triazole]
Severity of ocular toxicities in clinical studies (in words) ([7]; clinical studies with ganetespib): absence of severe common ocular toxicities | Chromatopsia, all adverse events, Grade 1 ([7]; n = 390, number (%)): 1 (<1%) | Chromatopsia, related adverse events, Grade 1 ([7]; n = 390, number (%)): 1 (<1%) | Difficulty with night vision, all adverse events, Grade 1 ([7]; n = 390, number (%)): 1 (<1%) | Vision blurred, all adverse events, Grade 1 ([7]; n = 390, number (%)): 11 (3%) | Vision blurred, all adverse events, Grade 2 ([7]; n = 390, number (%)): 2 (<1%) | Vision blurred, related adverse events, Grade 1 ([7]; n = 390, number (%)): 4 (1%) | Visual acuity reduced, all adverse events, Grade 1 ([7]; n = 390, number (%)): 2 (<1%) | Visual acuity reduced, related adverse events, Grade 1 ([7]; n = 390, number (%)): 1 (<1%) | Visual impairment, all adverse events, Grade 1 ([7]; n = 390, number (%)): 5 (1%) | Visual impairment, related adverse events, Grade 1 ([7]; n = 390, number (%)): 2 (<1%) | Ocular histopathology evaluation (retina [8]): No changes | Photoreceptor degeneration/apoptosis (photoreceptors [5]; SD rats, 20 mg/kg i.v.): (−) ((−) ≦20 cells/section) | Ocular toxicity / photoreceptor injury in rats (in words) (photoreceptors [5]; i.v.): absence of ocular effects; also recorded: did not induce ocular toxicity | Ocular histopathology evaluation (retina [9]): No changes | IC50 (HER2 in BT-474 cells; Homo sapiens, BT-474, 24 h): 30 nM | Toxicity: exposure compared with human dose ([3]; SD rats, 20 mg/kg i.v., Cmax & AUCt > human dose): Cmax & AUCt > | Elimination from the retina (in words) [3]: more rapidly eliminated from the retina | Retina/plasma (R/P) ratio (in words) [3]: lower R/P ratios

CC1(C)CC(=O)c2c(C(F)(F)F)nn(-c3ccc(C(N)=O)c(N[C@H]4CC[C@H](OC(=O)CN)CC4)c3)c2C1 [PF-04929113]
Retinal injury in dogs (retina [10]): photoreceptor degeneration and/or cell death
